Assay results published in patent US12502391B2, “Multi-kinase inhibitors of VEGF and TGF beta and uses thereof” (AIVIVA BIOPHARMA, INC., priority 2018, dated 2025).
Where “and” joins values, the source holds several entries; their conditions need not be identical. Identical values can stand only once. Counter-ions that a name gives are not always drawn. One block for each compound: values may come before it.

What was measured:
[1] = system: TGF-β1 mRNA; assay: TGF-β1 mRNA expression (qRT-PCR) in Yucatan pig skin wound sites; format: in vivo, Yucatan minipigs; details: Yucatan pig skin wound sites after treatments; for TGF-β1 mRNA Expression Fold Relative to Untreated Unwounded Control: individual animals 7369, 7370, 7371, duplicate sets 1 and 2, beta actin reference gene
Description: (§1) In this experiment, multiple full-thickness excision wounds were made to the dorsum of Yucatan minipigs, and the wound sites were allowed to be re-epithelialized adequately. At four weeks post-wound, the wound sites had normal to pink vascularity and had pliability. Epidermal hyperplasia was observed, as expected for regenerative responses in the full-thickness wounds.
(§2) On Day 28 post-wound, a dose (e.g., 1%) of axitinib, nintedanib, riociguat, sorafenib, sunitinib, and/or lenvatinib was administered into the dermal tissue at or around the wound sites, once every two weeks on two occasions. One wound site was left untreated as the control for each pig. Please note that the particular parameters in this example are only for illustration. One skilled in the art would appreciate that the dosages, administration methods, treatment regimen, and the administration sites may be varied to achieve similar results.
In addition, total mRNA was isolated from skin biopsies of the treated wound sites and the untreated unwounded sites of the pigs. The mRNA samples were used to prepare cDNA and analyzed via qRT-PCR. The TGF-β1 expression levels were assessed using beta actin as a reference gene.

[2] = system: rabbit ear hypertrophic scar; assay: Histopathology of rabbit ear wounds (neovascularization, fibrosis, re-epithelization); format: in vivo, New Zealand white rabbits; parameters: key to Total Score, Treated Mean: aggregate of neovascularization, fibrosis, re-epithelization grades; key to Neovascularization score, Treated Mean / Fibrosis/Collagen score, Treated Mean / Re-epithelization score, Treated Mean: five-step severity grade: minimal, mild, moderate, marked, severe; details: rabbit ear wound, intradermal dosing of 1 wt. %
Experimental: In New Zealand white rabbits, maintained under a surgical plane of anesthesia, trauma stimulation of the skin on the ventral surface of both ears is initiated on Day 1. Trauma sites are evaluated on Days 8, 15, 22, 29, 36, and 43. On days 15 and 29, each site is dosed with test compounds (e.g., 1% w/w, 100 μl) by intradermal or intralesional injections.
At necropsy, each treatment site was harvested and preserved for hematoxylin and […] and Mason's trichrome stainings. Each lesion was examined histologically and graded for neovascularization, fibrosis and re-epithelization using a five-step/severity grading system (minimal, mild, moderate, marked, and severe). The average total score is an aggregation of these microscopic findings relating to an inflammatory response.

[3] = system: full-thickness excision wounds; assay: Histology of full-thickness excision wounds in Yucatan minipigs (fibroplasia, neovascularization); format: in vivo; details: Yucatan minipig wound sites after two doses, Day 59, scale 1 (minimal) to 5 (severe); for Neovascularization; dermis, average score: untreated 2.33; for Fibroplasia; dermis, average score: untreated 3.33
Description: as §1, §2
On Day 59 post wound, the minipigs were sacrificed and dermal tissues were collected for qualitative and quantitative evaluation using hematoxylin and eosin, and Mason's Trichrome staining. Dermal fibroplasia was characterized by increased numbers of fibroblasts in the dermis suspended in variable amounts of collagen in wounds.

[4] = system: benign prostate hyperplasia; assay: Testosterone and phenylephrine induced benign prostate hyperplasia in rats; format: in vivo, Wistar rats; parameters: key to epithelial hyperplasia score, dorsolateral prostate, representative image / epithelial hyperplasia score, ventral prostate, representative image: severity grade 0 = not present to 5 = severe
Experimental: BPH is a true hyperplastic process. Histologic studies have documented an increase in cell number. A study was conducted, therefore, to determine the effects of test compounds and vehicle on testosterone (TE) and phenylephrine (PE) induced benign prostate hyperplasia in rats. Male Wistar rats were induced with testosterone (2 mg/kg) plus phenylephrine (5 mg/kg) administered daily by subcutaneous injection on days 5 through 32. Vehicle or test compounds (all at 1% w/w), nintedanib, sunitinib, lenvatinib, and 0.5% doxazosin mesylate, were administered by intra-prostate injection (0.4 ml) in dorsolateral and ventral lobes on days 1 and 18. Animals were euthanized on day 32. Body weights were determined and prostate glands were harvested. The experimental design is outlined in Table 6.
At necropsy, the ventral and dorsolateral lobes of the prostate were separated and then cut into halves. The left halves were fixed in 10% neutral buffered formalin, sectioned, and stained with Hematoxylin and Eosin (H&E). Histological changes in these sections were scored. Epithelial hyperplasia was recognized as an increase in epithelial cells within normal-appearing gland profiles, primarily reflected by stratification of epithelial cells and increased presence of epithelial tufting and papillary projections. A severity grade of 0 (not present) through 5 (severe) was assigned to each sample.

[5] = system: subconjunctival scarring; assay: Bleb survival after glaucoma filtration surgery in rabbit eyes; format: in vivo, rabbits
Experimental: In order to investigate the anti-scarring effect of topically applied test compounds following ocular surgeries, glaucoma filtration surgery was performed on rabbit eyes. Postoperative subconjunctival wound healing is a major cause of late bleb failure after glaucoma filtration surgery in humans. Select multikinase inhibitors were tested for effect on bleb survival over time. Inhibition of subconjunctival fibrosis following surgery will improve bleb survival. Vehicle was used as a negative control and pirfenidone was used a positive control.
A scleral tract was created in the left eyes superiorally by tunneling a beveled 22-gauge intravenous cannula through the sclera, beginning behind the limbus and continuing until the cannula is visible in the anterior chamber. The cannula was flushed with sodium heparin (1000 units) prior to placement. The cannula needle was withdrawn and the cannula advanced beyond the pupillary margin to prevent iris blockage of the tube. The cannula was trimmed approximately 2 mm and secured to the sclera using suture. Both the Tenon's and the conjunctiva were sutured with 9-0 Prolene. Six rabbits were used per group and the left eye of each rabbit underwent glaucoma filtration surgery. The treatment groups include vehicle control, pirfenidone (1%, w/v) as a positive control, sorafenib (0.3%, w/v), and lenvatinib (0.3%, w/v). Eyedrops (35 uL) were topically applied to the eyes following surgery three times day for 30 days. All animals were sacrificed on Day 30.
Bleb was monitored throughout the study. Bleb volumes were measured with the use of calibrated calipers. […] There were differences noted between groups at Day 7, and the majority of blebs were gone by Day 14 through Day 30 indicating bleb failure due to subconjunctival scarring. Results of the vehicle and pirfenidone groups were similar to those reported in the literature (Zhong H et al., Invest Ophthalmol Vis Sci, 52: 3136-3142, 2011).

[6] = system: suture-induced ocular fibrosis; assay: Rabbit corneal suture-induced ocular fibrosis model; format: in vivo, rabbits; details: topical three times daily, 10-day observation period
Description: In order to investigate the anti-fibrotic effect of test compounds following wounding in the eye, a suture-induced ocular fibrosis model was used. Suture was placed intrastromally under a microscope in the cornea of rabbits. In each eye, one 9.0 silk suture was placed, in a vertical position, temporal to the corneal center and a second suture was placed nasal to the corneal center. Each suture had two stromal incursions approximately 2 mm from the limbus. Test compounds having certain spectrum of multikinase inhibition activities and/or vehicle were topically instilled (35 uL/eye) in the eyes three times daily for 10 days the day following surgery. The treatment groups include vehicle, nintedanib (0.3%, w/v), pirfenidone (1%, w/v), riociguat (0.3%, w/v), sorafenib (0.3%, w/v) and lenvatinib (0.3%, w/v). Six left eyes were used per treatment group.
The animals were sacrificed on Day 11 and the eyes enucleated and dissected for histopathological evaluation.

[7] = five-step severity grading (minimal to severe)
[8] = TE and PE induced rats, intra-prostate injection 0.4 ml on days 1 and 18 (1% w/w; doxazosin mesylate 0.5%), severity grade 0 (not present) through 5 (severe), induced vehicle score=4

Compound: CNC(=O)c1ccccc1Sc1ccc2c(/C=C/c3ccccn3)n[nH]c2c1 [axitinib]
TGF-β1 mRNA Expression Fold Relative to Untreated Unwounded Control [1]: 0.89 fold and 0.68 fold (2×) and 0.64 fold and 0.37 fold and 0.78 fold | average total score of test wounds, fold lower than untreated wounds [2]: about 1.3 fold | Total Score, Treated Mean ([2]; aggregation of microscopic findings): 4.6 | Fibrosis/Collagen score, Treated Mean [2, 7]: 3.3 | Neovascularization score, Treated Mean [2, 7]: 1 | Re-epithelization score, Treated Mean [2, 7]: 0.3 | Neovascularization; dermis, average score [3]: (1.67) | Fibroplasia; dermis, average score [3]: (2.33)

Compound: COc1cc2nc(N3CCN(C(=O)C4COc5ccccc5O4)CC3)nc(N)c2cc1OC (centres unmarked) [doxazosin, doxazosin mesylate]
epithelial hyperplasia score, dorsolateral prostate, representative image [4, 8]: 3 | epithelial hyperplasia score, ventral prostate, representative image [4, 8]: 3 | glandular hyperplasia compared to untreated TE/PE induced prostates ([4]; TE and PE induced rats, intra-prostate injection on days 1 and 18): demonstrated reduction of glandular hyperplasia

Compound: Cc1ccc(=O)n(-c2ccccc2)c1 [pirfenidone]
bleb survival on Day 7 ([5]; eyedrops 35 uL three times a day, pirfenidone 1% w/v, lenvatinib 0.3% w/v, compared to vehicle and sorafenib groups): kept bleb survival on Day 7 | bleb remaining / bleb failure on Day 30 ([5]; eyedrops three times a day for 30 days, 6 animals per group): demonstrated bleb failure

gross ocular observations: conjunctival congestion and swelling [6]: slightly more severe reaction
Compound: COC(=O)N(C)c1c(N)nc(-c2nn(Cc3ccccc3F)c3ncccc23)nc1N [riociguat]
reduction of TGF-β1 mRNA expression levels at treated wounds [1]: most effective | TGF-β1 mRNA Expression Fold Relative to Untreated Unwounded Control [1]: 0.60 fold and 0.76 fold and 0.87 fold and 0.39 fold and 0.49 fold and 0.8 fold | Neovascularization; dermis, average score [3]: (2.67) | Fibroplasia; dermis, average score [3]: (2.67)

Compound: CCN(CC)CCNC(=O)c1c(C)[nH]c(/C=C2\C(=O)Nc3ccc(F)cc32)c1C [sunitinib]
TGF-β1 mRNA Expression Fold Relative to Untreated Unwounded Control [1]: 0.50 fold and 0.53 fold and 0.48 fold and 0.45 fold and 0.64 fold and 1.86 fold | epithelial hyperplasia score, ventral prostate, representative image ([4]; 1 % strength): 3 | epithelial hyperplasia score, dorsolateral prostate, representative image [4, 8]: 3 | Neovascularization; dermis, average score [3]: (2.33) | Fibroplasia; dermis, average score [3]: (2.67)
